Data on eleven compounds can be found in ChEMBL document CHEMBL3991601, “The target landscape of clinical kinase drugs” (Science, 2017).

The structures appear in SMILES notation. pKd: −log10 of the molar value. Active and inactive are the calls of the source. Rule as the data show it, for most assays here: actives have a measured Kd and inactives only a lower limit. Bounds are passed on as bounds.

One assay deals with T1, Activin receptor type-1 (Homo sapiens, UniProt Q04771).
T1 sequence (Q04771 whole entry): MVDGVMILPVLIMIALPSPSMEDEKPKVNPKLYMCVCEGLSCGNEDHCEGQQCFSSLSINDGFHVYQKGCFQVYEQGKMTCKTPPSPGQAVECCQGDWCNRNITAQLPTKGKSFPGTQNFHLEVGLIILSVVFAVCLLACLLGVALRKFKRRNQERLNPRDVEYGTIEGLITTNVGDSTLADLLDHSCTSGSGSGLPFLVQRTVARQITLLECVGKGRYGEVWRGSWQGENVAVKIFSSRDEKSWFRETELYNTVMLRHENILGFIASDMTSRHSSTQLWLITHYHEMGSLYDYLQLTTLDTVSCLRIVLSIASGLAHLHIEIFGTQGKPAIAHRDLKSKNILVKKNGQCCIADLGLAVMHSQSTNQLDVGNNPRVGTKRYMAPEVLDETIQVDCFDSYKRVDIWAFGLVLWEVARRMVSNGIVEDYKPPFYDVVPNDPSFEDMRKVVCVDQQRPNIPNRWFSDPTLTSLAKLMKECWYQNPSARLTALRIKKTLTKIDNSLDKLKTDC

In a further assay the target is T2, Glycine--tRNA ligase (Homo sapiens, UniProt P41250).
T2 sequence (P41250 whole entry): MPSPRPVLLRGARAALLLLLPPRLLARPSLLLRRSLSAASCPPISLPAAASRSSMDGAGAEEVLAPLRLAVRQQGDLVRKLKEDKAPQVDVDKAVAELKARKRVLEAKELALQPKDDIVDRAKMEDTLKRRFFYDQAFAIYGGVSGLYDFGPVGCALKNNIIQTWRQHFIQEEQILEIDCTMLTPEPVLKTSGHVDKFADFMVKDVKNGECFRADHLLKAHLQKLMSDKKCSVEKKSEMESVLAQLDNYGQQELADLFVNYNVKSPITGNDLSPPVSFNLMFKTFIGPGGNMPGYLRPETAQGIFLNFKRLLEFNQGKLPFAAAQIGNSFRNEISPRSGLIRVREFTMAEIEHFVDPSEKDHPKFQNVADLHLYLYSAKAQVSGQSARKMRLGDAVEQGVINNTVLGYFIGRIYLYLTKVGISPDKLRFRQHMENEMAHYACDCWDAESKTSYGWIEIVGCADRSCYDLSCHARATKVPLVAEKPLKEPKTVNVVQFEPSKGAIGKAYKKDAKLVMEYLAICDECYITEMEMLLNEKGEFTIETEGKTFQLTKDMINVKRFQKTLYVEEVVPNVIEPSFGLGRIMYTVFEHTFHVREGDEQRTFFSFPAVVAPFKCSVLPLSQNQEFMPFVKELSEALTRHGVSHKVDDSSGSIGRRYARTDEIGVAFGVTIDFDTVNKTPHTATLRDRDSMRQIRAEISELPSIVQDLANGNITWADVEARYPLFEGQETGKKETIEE

In assay [1] the target is T3, Interleukin-1 receptor-associated kinase 3 (Homo sapiens, UniProt Q9Y616).
T3 sequence (Q9Y616 whole entry): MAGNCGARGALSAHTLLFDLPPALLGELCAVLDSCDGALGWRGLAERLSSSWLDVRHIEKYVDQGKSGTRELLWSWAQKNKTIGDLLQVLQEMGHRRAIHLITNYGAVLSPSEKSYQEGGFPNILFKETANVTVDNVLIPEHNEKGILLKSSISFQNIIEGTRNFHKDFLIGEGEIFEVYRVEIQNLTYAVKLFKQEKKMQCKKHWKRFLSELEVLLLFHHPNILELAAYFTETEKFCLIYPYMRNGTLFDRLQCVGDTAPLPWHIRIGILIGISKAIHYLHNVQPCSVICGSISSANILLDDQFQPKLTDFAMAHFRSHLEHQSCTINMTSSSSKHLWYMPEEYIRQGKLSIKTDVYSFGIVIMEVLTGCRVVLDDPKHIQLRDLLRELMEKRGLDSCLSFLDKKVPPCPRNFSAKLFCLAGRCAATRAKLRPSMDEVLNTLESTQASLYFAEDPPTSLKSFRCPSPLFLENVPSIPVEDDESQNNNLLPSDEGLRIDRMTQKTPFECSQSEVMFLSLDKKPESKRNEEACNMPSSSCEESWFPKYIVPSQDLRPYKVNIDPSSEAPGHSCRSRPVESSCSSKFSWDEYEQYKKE

For assay [2], the target named is Dual specificity mitogen-activated protein kinase kinase 1 (Homo sapiens, UniProt Q02750).
Dual specificity mitogen-activated protein kinase kinase 1, sequence (Q02750 whole entry): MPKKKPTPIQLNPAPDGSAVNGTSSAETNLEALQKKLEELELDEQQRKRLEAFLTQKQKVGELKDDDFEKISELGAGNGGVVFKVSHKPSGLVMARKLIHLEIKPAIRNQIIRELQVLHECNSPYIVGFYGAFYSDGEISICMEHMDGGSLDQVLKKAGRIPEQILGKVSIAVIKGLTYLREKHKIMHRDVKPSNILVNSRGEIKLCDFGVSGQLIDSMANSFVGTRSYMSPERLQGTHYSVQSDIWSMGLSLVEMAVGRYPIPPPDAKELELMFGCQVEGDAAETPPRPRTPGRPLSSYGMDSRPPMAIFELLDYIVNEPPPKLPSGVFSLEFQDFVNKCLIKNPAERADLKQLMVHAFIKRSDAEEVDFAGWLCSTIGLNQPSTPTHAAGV
Assay [3] deals with Mitogen-activated protein kinase kinase kinase kinase 1 (Homo sapiens, UniProt Q92918).
Mitogen-activated protein kinase kinase kinase kinase 1, sequence (Q92918 whole entry, canonical isoform): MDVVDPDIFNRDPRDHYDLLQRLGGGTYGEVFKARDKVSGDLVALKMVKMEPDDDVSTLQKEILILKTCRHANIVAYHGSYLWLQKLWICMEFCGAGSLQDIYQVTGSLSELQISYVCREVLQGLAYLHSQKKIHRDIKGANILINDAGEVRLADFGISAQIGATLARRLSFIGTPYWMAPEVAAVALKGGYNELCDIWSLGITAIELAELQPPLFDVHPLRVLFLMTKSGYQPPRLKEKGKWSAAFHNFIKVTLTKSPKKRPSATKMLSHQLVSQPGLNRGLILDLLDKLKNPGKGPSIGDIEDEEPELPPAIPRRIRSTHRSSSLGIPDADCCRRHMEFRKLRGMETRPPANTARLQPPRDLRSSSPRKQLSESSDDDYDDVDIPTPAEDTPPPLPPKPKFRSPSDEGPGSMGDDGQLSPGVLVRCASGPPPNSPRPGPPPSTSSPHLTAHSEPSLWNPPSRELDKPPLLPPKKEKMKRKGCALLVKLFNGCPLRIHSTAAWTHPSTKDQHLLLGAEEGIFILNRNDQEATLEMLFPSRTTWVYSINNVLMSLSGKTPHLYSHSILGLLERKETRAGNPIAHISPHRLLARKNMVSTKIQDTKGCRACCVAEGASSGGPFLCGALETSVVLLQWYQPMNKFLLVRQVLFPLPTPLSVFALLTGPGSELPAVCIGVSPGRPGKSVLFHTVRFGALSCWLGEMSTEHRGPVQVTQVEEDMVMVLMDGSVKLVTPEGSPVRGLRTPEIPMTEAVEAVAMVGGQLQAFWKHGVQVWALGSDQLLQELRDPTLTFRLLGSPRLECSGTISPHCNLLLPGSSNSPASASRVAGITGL
The target in assay [4] is S-adenosylmethionine synthase isoform type-2 (Homo sapiens, UniProt P31153).
S-adenosylmethionine synthase isoform type-2, sequence (P31153 whole entry, canonical isoform): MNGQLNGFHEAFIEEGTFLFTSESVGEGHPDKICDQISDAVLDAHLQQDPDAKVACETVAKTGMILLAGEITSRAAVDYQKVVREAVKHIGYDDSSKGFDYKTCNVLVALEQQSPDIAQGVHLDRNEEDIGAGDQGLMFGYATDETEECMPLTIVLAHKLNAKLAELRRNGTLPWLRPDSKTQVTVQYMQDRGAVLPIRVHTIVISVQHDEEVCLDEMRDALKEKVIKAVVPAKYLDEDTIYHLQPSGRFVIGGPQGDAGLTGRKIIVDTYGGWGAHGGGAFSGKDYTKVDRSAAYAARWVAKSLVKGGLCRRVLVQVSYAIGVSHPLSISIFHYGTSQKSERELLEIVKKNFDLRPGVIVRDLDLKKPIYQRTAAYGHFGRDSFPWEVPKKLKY
The target of assay [5] is Rho-associated protein kinase 1 (Homo sapiens, UniProt Q13464).
Rho-associated protein kinase 1, sequence (Q13464 whole entry): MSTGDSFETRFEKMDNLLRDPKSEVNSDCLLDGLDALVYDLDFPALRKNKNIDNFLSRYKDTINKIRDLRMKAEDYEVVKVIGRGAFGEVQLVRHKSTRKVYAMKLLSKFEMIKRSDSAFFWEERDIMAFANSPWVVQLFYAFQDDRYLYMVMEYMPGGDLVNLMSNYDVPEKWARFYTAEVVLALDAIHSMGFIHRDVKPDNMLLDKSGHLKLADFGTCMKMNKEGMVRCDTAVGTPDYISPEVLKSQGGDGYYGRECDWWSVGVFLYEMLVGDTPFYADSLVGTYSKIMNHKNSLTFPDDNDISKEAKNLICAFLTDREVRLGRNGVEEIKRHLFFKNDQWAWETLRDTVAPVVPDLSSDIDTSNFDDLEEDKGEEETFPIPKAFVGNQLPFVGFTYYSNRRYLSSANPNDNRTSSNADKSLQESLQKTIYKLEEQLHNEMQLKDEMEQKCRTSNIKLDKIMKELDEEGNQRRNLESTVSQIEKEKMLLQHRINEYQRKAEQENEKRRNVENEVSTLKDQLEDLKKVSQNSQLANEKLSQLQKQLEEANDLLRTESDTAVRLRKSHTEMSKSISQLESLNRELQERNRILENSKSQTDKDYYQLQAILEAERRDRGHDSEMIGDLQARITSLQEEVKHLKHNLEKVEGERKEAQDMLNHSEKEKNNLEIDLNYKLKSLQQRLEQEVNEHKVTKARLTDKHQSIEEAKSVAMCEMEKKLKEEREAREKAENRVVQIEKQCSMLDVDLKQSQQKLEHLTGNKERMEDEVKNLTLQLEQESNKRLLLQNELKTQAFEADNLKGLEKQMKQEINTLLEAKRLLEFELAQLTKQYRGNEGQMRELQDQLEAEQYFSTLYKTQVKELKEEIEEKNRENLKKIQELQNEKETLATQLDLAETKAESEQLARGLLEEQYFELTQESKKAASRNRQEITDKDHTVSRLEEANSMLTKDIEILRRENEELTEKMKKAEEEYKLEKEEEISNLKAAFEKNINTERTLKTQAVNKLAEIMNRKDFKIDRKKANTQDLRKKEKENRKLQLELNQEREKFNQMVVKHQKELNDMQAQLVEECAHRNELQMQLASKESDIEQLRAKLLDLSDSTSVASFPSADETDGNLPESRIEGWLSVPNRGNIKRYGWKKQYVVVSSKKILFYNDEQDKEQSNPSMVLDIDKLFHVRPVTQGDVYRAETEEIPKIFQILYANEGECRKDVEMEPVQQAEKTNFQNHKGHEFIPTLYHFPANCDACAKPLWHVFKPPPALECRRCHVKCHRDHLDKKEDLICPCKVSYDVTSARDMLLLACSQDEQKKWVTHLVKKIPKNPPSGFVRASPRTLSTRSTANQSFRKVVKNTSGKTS
Also: in the data inactive means no Kd found up to 30 µM.

Consider `CN1CCN(CCOc2cc(OC3CCOCC3)c3c(Nc4c(Cl)ccc5c4OCO5)ncnc3c2)CC1` [SARACATINIB], for which the Kd – broadly, a measure of binding affinity in units of concentration – on Activin receptor type-1 is 0.004 µM (active); at Glycine--tRNA ligase, > 30 µM (inactive); in assay [1], > 30 µM (inactive); in assay [2], > 30 µM (inactive); in assay [3] it was > 30 µM (inactive); in assay [4], > 30 µM (inactive). In addition, in assay [5], the Kd was > 30 µM (inactive).

With `Cn1cc(-c2cnn3c(N)c(Br)c([C@@H]4CCCNC4)nc23)cn1` [SCH-900776], the Kd (at Activin receptor type-1; at Glycine--tRNA ligase; in assay [1]; in assay [2]; in assay [3]; in assay [4]) was > 30 µM (inactive) in each case. In addition, the Kd in assay [5] was > 30 µM (inactive).

As to `CO[C@H]1C[C@@H]2CC[C@@H](C)[C@@](O)(O2)C(=O)C(=O)N2CCCC[C@H]2C(=O)O[C@H]([C@H](C)C[C@@H]2CC[C@@H](O)[C@H](OC)C2)CC(=O)[C@H](C)/C=C(\C)[C@@H](O)[C@@H](OC)C(=O)[C@H](C)C[C@H](C)/C=C/C=C/C=C/1C` [SIROLIMUS], the Kd (on Activin receptor type-1; at Glycine--tRNA ligase; in assay [1]; in assay [2]; in assay [3]; in assay [4]) was > 30 µM (inactive) in each case. For the same compound, the Kd in assay [5] was > 30 µM (inactive).

For the compound `CCS(=O)(=O)c1cccc(-c2cc(C(=O)NC3CCN(C)CC3)c(C)c3[nH]c4ncc(C)cc4c23)c1` [TAK-901], the Kd on Activin receptor type-1 is 0.249 µM (active); at Glycine--tRNA ligase, > 30 µM (inactive); in assay [1], 0.027 µM (active); in assay [2], > 30 µM (inactive); in assay [3], > 30 µM (inactive); in assay [4] it was > 30 µM (inactive). For the same compound, the Kd in assay [5] is > 30 µM (inactive).

Turning to `CO[C@H]1C[C@@H]2CC[C@@H](C)[C@@](O)(O2)C(=O)C(=O)N2CCCC[C@H]2C(=O)O[C@H]([C@H](C)C[C@@H]2CC[C@@H](OC(=O)C(C)(CO)CO)[C@H](OC)C2)CC(=O)[C@H](C)/C=C(\C)[C@@H](O)[C@@H](OC)C(=O)[C@H](C)C[C@H](C)/C=C/C=C/C=C/1C` [TEMSIROLIMUS], the Kd (on Activin receptor type-1; on Glycine--tRNA ligase; in assay [1]; in assay [2]; in assay [3]; in assay [4]) was > 30 µM (inactive) throughout. In assay [5], the Kd was > 30 µM (inactive).

As for `COc1cc2c(Nc3ccc(Cl)c(Cl)c3F)ncnc2cc1OC[C@@H]1C[C@@H]2CN(C)C[C@@H]2C1` [TESEVATINIB], the Kd (at Activin receptor type-1; on Glycine--tRNA ligase; in assay [1]; in assay [2]; in assay [3]; in assay [4]) was > 30 µM (inactive) throughout. The Kd in assay [5] is > 30 µM (inactive).

Consider `O=C1NC(=O)[C@@H](c2cn3c4c(cccc24)CCC3)[C@@H]1c1c[nH]c2ccccc12` [TIVANTINIB], for which the Kd (on Activin receptor type-1; on Glycine--tRNA ligase; in assay [1]; in assay [2]; in assay [3]; in assay [4]) was > 30 µM (inactive) each time. The Kd in assay [5] is > 30 µM (inactive).

For `C[C@@H](NC(=O)c1ncnc(N)c1Cl)c1ncc(C(=O)Nc2cc(C(F)(F)F)c(Cl)cn2)s1` [TOVORAFENIB], the Kd (at Activin receptor type-1; on Glycine--tRNA ligase; in assay [1]; in assay [2]; in assay [3]; in assay [4]) was > 30 µM (inactive) each time. The Kd in assay [5] is > 30 µM (inactive).

Turning to `Cc1cc(Nc2ncnc3ccc(NC4=NC(C)(C)CO4)cc23)ccc1Oc1ccn2ncnc2c1` [TUCATINIB], the Kd (on Activin receptor type-1; on Glycine--tRNA ligase; in assay [1]; in assay [2]; in assay [3]; in assay [4]) was > 30 µM (inactive) in each case. Further, the Kd in assay [5] was > 30 µM (inactive).

With `CC(C)c1cc(CNc2nc(Nc3cc(C4CC4)[nH]n3)cc(N3CCN(C)CC3)n2)on1` [XL-228], the Kd on Activin receptor type-1 was 0.005 µM (active); on Glycine--tRNA ligase, > 30 µM (inactive); in assay [1], 0.08 µM (active); in assay [3], 0.015 µM (active); in assay [4], > 30 µM (inactive); in assay [5], > 30 µM (inactive). Also, the pKd (as a rule, the negative decadic logarithm of the Kd, by convention in mol/L) in assay [2] is 5.15.

As to `CN1C/C=C/CCOc2cccc(c2)-c2ccnc(n2)Nc2cccc(c2)C1` [ZOTIRACICLIB], the Kd was > 30 µM (inactive) at Activin receptor type-1; > 30 µM (inactive) on Glycine--tRNA ligase; 0.286 µM (active) in assay [1]; > 30 µM (inactive) in assay [2]; > 30 µM (inactive) in assay [3]; > 30 µM (inactive) in assay [4]. In assay [5], this compound had a pKd of 4.00.
